According to patent US12122750B2, “AT2R antagonists and uses thereof” (Eli Lilly and Company, priority 2022, dated 2024):

Tests used:
[1] = molecular target: recombinant human angiotensin-II receptor subtype 2 (hAT2R) (Homo sapiens (Human), UniProt P50052); test: Competitive radioligand binding assay (SPA), hAT2R HEK293 membranes; conditions: [125I]-Tyr4-Angiotensin-II, read-out: AT2R Ki
Method in brief: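 SPA competition binding on membranes from HEK293 cells stably transfected with hAT2R (0.25 μg/well, with 0.1 mg/well PVT-WGA beads) in 50 mM Tris-HCl pH 7.5, 150 mM NaCl, 0.1% fatty-acid-free BSA. Ten-point four-fold dilution curves ran from 50 μM top final concentration. Bound radioactivity was counted (CPM) after 10 h at room temperature.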

[2] = Plasma concentration of test compound in the receptor occupancy study; type: in vivo, Sprague Dawley rats; conditions: rat
Method: Twenty male Sprague Dawley rats (140-150 gms, Envigo) were maintained under controlled laboratory conditions on a 12 hr light cycle with ad lib access to food and water. On the morning of the experiment, rats were orally dosed with vehicle (1% (w/v) hydroxyethylcellulose, 0.25% (w/v) polysorbate 80, 0.05% (v/v) antifoam 1510-US in purified water) or appropriate doses of test compound (5 mL/kg, n=4 rats/group) using the same vehicle. Following a pre-determined survival time, plasma and adrenals were collected and frozen at −80° C. until analyzed. Frozen 20 μm sections of an adrenal from each animal were collected onto gelatin-coated slides and stored at −80° C. Autoradiography to detect AT2R occupancy (RO) was conducted under cold conditions using methods modified from F. M. J. Heemskerk, et al, Brain Research 677 (1995) 29-38. Total binding was defined by 0.3 nM ^125I-CGP42112 (selective AT2R agonist, Perkin Elmer, Inc) with the addition of 10 μM unlabeled AngII used to define non-specific binding. Following exposure to a phosphoimager plate (BAS TR2025, GE Healthcare), the bound radioactivity is calculated with use of MCID software (Imaging Research, Inc) and calibrated ^125I standards (American Radiolabeled Chemicals, Inc). The specific ligand binding for each animal is calculated by subtracting the non-specific binding from the total bound.

AT2R = AT2R (Rattus norvegicus (Rat), UniProt P35351); test: AT2R ex vivo autoradiography receptor occupancy in rat adrenal sections after oral dosing; design: species or system Sprague Dawley rats; conditions: for IC50 / IC80: plasma concentration plotted vs % receptor occupancy, rat; for receptor occupancy at 0.3 mg/kg: oral dose 0.3 mg/kg; for receptor occupancy at 1 mg/kg: oral dose 1 mg/kg; for receptor occupancy at 3 mg/kg: oral dose 3 mg/kg; for receptor occupancy at 10 mg/kg: oral dose 10 mg/kg; for ex vivo IC50 (TER) / ex vivo IC80 (TER): rat receptor occupancy
Chain of AT2R (P35351 whole entry): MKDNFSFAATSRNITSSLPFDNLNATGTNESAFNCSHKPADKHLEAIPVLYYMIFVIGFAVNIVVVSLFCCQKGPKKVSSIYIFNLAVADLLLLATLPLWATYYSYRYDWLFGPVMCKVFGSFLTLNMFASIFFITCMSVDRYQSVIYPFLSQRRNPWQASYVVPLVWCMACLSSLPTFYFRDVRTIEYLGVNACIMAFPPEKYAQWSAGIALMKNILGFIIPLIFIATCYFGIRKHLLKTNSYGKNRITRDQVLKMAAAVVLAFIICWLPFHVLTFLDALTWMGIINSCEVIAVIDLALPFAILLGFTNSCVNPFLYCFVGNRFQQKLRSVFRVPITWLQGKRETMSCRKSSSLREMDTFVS
Method: The ability for a compound to engage its target may be measured by determining compound's receptor occupancy. An ex vivo autoradiography assay was conducted as described herein.
Twenty male Sprague Dawley rats (140-150 gms, Envigo) were maintained under controlled laboratory conditions on a 12 hr light cycle with ad lib access to food and water. […] Following a pre-determined survival time, plasma and adrenals were collected and frozen at −80° C. until analyzed. Frozen 20 μm sections of an adrenal from each animal were collected onto gelatin-coated slides and stored at −80° C. […] The specific ligand binding for each animal is calculated by subtracting the non-specific binding from the total bound.

Chain of recombinant human angiotensin-II receptor subtype 2 (hAT2R) (P50052 whole entry): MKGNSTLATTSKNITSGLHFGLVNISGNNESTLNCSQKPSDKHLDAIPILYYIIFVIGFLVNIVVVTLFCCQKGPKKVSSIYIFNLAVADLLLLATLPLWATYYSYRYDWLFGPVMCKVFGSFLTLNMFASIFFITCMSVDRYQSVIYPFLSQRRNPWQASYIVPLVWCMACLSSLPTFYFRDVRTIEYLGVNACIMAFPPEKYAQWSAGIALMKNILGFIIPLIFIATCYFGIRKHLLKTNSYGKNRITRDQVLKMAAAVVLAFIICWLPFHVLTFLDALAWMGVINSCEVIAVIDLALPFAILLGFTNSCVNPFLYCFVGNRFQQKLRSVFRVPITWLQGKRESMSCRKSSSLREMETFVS

| Ki [1] | [plasma, free, nM] ([2]; oral dose 0.01 mg/kg) | [plasma, free, nM] ([2]; oral dose 0.03 mg/kg) | [plasma, free, nM] ([2]; oral dose 0.1 mg/kg) | [plasma, free, nM] ([2]; oral dose 1 mg/kg) | IC50 (AT2R) | IC80 (AT2R) | receptor occupancy at 0.01 mg/kg (AT2R; rat adrenal, oral dose 0.01 mg/kg, read-out: % RO) | receptor occupancy at 0.03 mg/kg (AT2R; rat adrenal, oral dose 0.03 mg/kg, read-out: % RO) | receptor occupancy at 0.1 mg/kg (AT2R; rat adrenal, oral dose 0.1 mg/kg, read-out: % RO) | receptor occupancy at 0.3 mg/kg (AT2R; rat adrenal, read-out: % RO) | receptor occupancy at 1 mg/kg (AT2R; rat adrenal, read-out: % RO) | receptor occupancy at 3 mg/kg (AT2R; rat adrenal, read-out: % RO) | receptor occupancy at 10 mg/kg (AT2R; rat adrenal, read-out: % RO) | ex vivo IC50 (TER) (AT2R) | ex vivo IC80 (TER) (AT2R) | [plasma, free, nM] ([2]; oral dose 0.3 mg/kg) | [plasma, free, nM] ([2]; oral dose 3 mg/kg) | [plasma, free, nM] ([2]; oral dose 10 mg/kg) | SMILES |
| --- | --- | --- | --- | --- | --- | --- | --- | --- | --- | --- | --- | --- | --- | --- | --- | --- | --- | --- | --- |
| 9.59 nM | 0.0298 nM | 0.224 nM | 0.476 nM | 2.57 nM | 0.114 nM | 0.449 nM | 16.3% | 65% | 76.3% | 79.3% | 93.2% | 90.9% | 93% | 0.186 TER | 0.731 TER |  |  |  | CN(C(=O)N1CCC(CC(=O)N(c2ccccc2)C(C2CC2)C2CC2)(C(=O)O)CC1)c1ccc(F)cc1 [Example 18, 4-[2-[N-(dicyclopropylmethyl)anilino]-2-oxo-ethyl]-1-[(4-fluorophenyl)-methyl-carbamoyl]piperidine-4-carboxylic acid] |
| 5.36 nM |  |  |  | 1.74 nM | 0.821 nM | 3.34 nM |  |  |  | 37.8% | 61.9% | 83.5% | 90.5% | 0.375 TER | 1.525 TER | 0.482 nM | 5.99 nM | 15.8 nM | O=C(N1CCC(CC(=O)N(c2ccccc2)c2ccccc2)(C(=O)O)CC1)N1CCc2ccccc21 [Example 3, 1-(indoline-1-carbonyl)-4-[2-oxo-2-(N-phenylanilino)ethyl]piperidine-4-carboxylic acid] |
